Test results taken from ChEMBL document CHEMBL1144364, “Synthesis and biological activity of the tea catechin metabolites, M4 and M6 and their methoxy-derivatives” (Bioorg Med Chem Lett, 2005).
The source made the active and inactive calls. No cut-off for these calls is given here.

Assays:
[1] = Percent inhibition of growth of human esophageal squamous cell carcinoma cells, KYSE150 cells, at 50 uM concentration (Range=20-40%); type: functional; conditions: KYSE-150
HT-29 [2] = assay: Percent inhibition of growth of human colon adenocarcinoma cells, HT-29 cells, at 50 uM concentration; NE=No effect; type: functional, cell-based
[3] = Percent inhibition of growth of an immortalized rat intestinal epithelial cell line, IEC-6 cell line; type: functional
HT-29 [4] = assay: Percent inhibition of growth of human colon adenocarcinoma cells, HT-29 cells; type: functional
[5] = Percent inhibition of growth of human esophageal squamous cell carcinoma cells, KYSE150 cells; type: functional
HCT-116 [6] = assay: Percent inhibition of growth of human colon adenocarcinoma cells, HCT116 cells; type: functional
Mus musculus [7] = organism: Mus musculus; assay: Evaluated to inhibit the release of arachidonic acid and the production of nitric oxide(NO) by lipopolysaccharide (LPS)-stimulated murine macrophages (RAW264.7); NE=No effect; type: functional, organism-based
INT-407 (Homo sapiens) [8] = assay: Percent inhibition of growth of an immortalized human intestinal epithelial cells, INT-407 cells
HT-29 [9] = assay: Inhibitory concentration against human colon adenocarcinoma cells, HT-29 cells (Range=15-73); type: functional, cell-based
[10] = Inhibitory concentration against human esophageal squamous cell carcinoma cells, KYSE150 cells (Range=15-73); type: functional
HCT-116 [11] = assay: Inhibitory concentration against human colon adenocarcinoma cells, HCT116 cells (Range=15-73); type: functional, cell-based
Mus musculus [12] = organism: Mus musculus; assay: Evaluated to inhibit the release of arachidonic acid and the production of nitric oxide(NO) by lipopolysaccharide (LPS)-stimulated murine macrophages (RAW264.7); type: functional, organism-based
[13] = Inhibitory concentration against an immortalized rat intestinal epithelial cell line, IEC-6 cell line (Range=15-73); type: functional, cell-based
INT-407 (Homo sapiens) [14] = assay: Inhibitory concentration against an immortalized human intestinal epithelial cells, INT-407 cells (Range=15-73); conditions: epithelial cell

With `COc1ccc(CC2CCC(=O)O2)cc1O` (stereo not drawn) the inhibition at 50 µM [1] was 40% and the inhibition (HT-29 [2]) was “inactive”.
In the case of `O=C1CCC(Cc2ccc(O)c(O)c2)O1` (stereo not drawn), the inhibition at 50 µM [1] is reported as 40% and the inhibition (HT-29 [2]) is reported as “inactive”.
For `COc1ccc(CC2CCC(=O)O2)cc1OC` (stereo not drawn), the inhibition at 50 µM [1] was 40% and the inhibition (HT-29 [2]) was “inactive”.
`COc1cc(CC2CCC(=O)O2)cc(OC)c1OC` (stereo not drawn) showed an Inhibition [3] of under 20%, an Inhibition (HT-29 [4]) of under 20% and an Inhibition [5] of under 20%. The Inhibition (HCT-116 [6]) was under 20%, the IC50 (Mus musculus [7]) was “Not Active” and the Inhibition (INT-407 (Homo sapiens) [8]) was under 20%.
Molecule `O=C1CCC(Cc2cc(O)c(O)c(O)c2)O1` (stereo not drawn) has an IC50 (HT-29 [9]) of 73 µM, an IC50 [10] of 73 µM and an IC50 (HCT-116 [11]) of 73 µM. For the same molecule, the IC50 (Mus musculus [12]) was 20 µM, the IC50 [13] was 73 µM and the IC50 (INT-407 (Homo sapiens) [14]) was 73 µM.
